Assay [1] relates to NMDA receptor. Nature of the assay: Radioligand binding: displacement of [3H]MK-801 from rat forebrain membranes. The text has this:
(§1) Evaluation of the therapeutic effects of the novel PRS-211 compounds has now been carried out in a series of experimental systems to support the utility of these drugs as neuroprotectants, anti-inflammatory agents and anti-oxidative agents. These effects have been evaluated both in vitro and in vivo, and have been corroborated utilizing the following systems: • (a) Binding to the NMDA receptor linked channel: Non competitive antagonists of NMDA, the primary example of which is the compound MK-801, bind to a site within the NMDA receptor channel thus preventing the activation of the receptor-channel complex and the consequent neurotoxicity. The ability of various compounds to compete with the binding of tritium labeled MK-801 to brain membranes is considered a measure of their potency as NMDA non-competitive antagonists. • (b) Inhibition of prostaglandin production: The inhibitory effect of the new derivatives of Dexanabinol on prostaglandin synthesis is evaluated in macrophage cell cultures following LPS exposure to induce the inflammatory response. These assays are an indication of the anti-inflammatory activity of the individual analogs. • (c) Inhibition of Tumor Necrosis Factor Alpha: Specific aspects of the inflammatory response cascade are mediated by the cytokine TNFα. Inhibition of TNFα production and/or inhibition of TNFα release by the new analogs are assayed in macrophage cell cultures activated with LPS. This serves as another indication of the general anti-inflammatory potential of the novel compounds. • (d) Nitric Oxide Assay: As one aspect of the anti-oxidative potential of the novel analogs they were tested for their ability to inhibit the enzyme nitric oxide synthase (NOS). This assay can also serve as another indication of the anti-inflammatory cascade, as well as the anti-oxidative mechanisms. • (e) Ear Edema model: The anti-inflammatory activity of the new analogs is screened using an ear edema model in mice. This test system utilizes Croton oil or Arachidonic acid as inflammation inducers. The ability of the test compounds to prevent or diminish the inflammatory response to these stimulants is indicative of their systemic anti-inflammatory capability. • (f) Improved clinical outcome after closed head injury in rats: Severe head injury is associated with high mortality and severe neurological impairment. Animals subjected to head trauma in a controlled fashion serve as models in which to test drugs of therapeutic potential. Test compounds can be evaluated both for improved clinical outcome and for reduction of edema induced by closed head injury. The ability of compounds to reduce the severity of neurological symptoms and to reduce brain edema is considered a measure of their potency in reducing brain damage. • (g) Transient Middle cerebral artery occlusion (MCAo): The middle cerebral artery is the cerebral blood vessel most susceptible to stroke in humans. In animals, coagulation, permanent ligation or permanent placement of an occluding thread in the artery produces a permanent focal stroke affecting the MCA territory. Transient ligation or occlusion results in transient focal stroke. Both transient and permanent focal strokes result in varying degrees of edema and infarction in the affected brain regions. The ability of compounds to reduce the volumes of edema and infarction is considered a measure of their potential as anti-stroke treatment. • (h) Optic Nerve Crush: Application of mechanical pressure to the rat optical nerve results in crush injury of the axons, which is accompanied by immediate changes in oxidative metabolism and delayed axonal death and blindness. […]
Background: Displacement assays read how much labelled ligand stays bound in the presence of the test substance.

Assay [2] concerns PGE2. Nature of the assay: Inhibition of prostaglandin synthesis (PGE2) in LPS-stimulated macrophage cell cultures. The note with it: LPS-stimulated macrophages. The format is cell-based.
Text: as §1

The test system of assay [3] is TNFα. Nature of the assay: Inhibition of TNFα in LPS-stimulated macrophage cell cultures (ELISA). The format is cell-based. The note with it: LPS-stimulated macrophages.
Text: as §1

The test system of assay [4] is Nitric Oxide Synthase (NOS). Nature of the assay: Inhibition of nitric oxide synthase (nitrite fluorimetric assay, LPS-stimulated macrophage cultures). The note with it: LPS-stimulated macrophages. Format: cell-based.
Text: as §1

The subject of assay [5] is ear edema model in mice. Kind of assay: Ear edema model. Format: in vivo. The note with it: Mus musculus, Croton oil (CO) as inducer, IP.
Text: as §1

For assay [6], the system named is transient middle cerebral artery occlusion in rats. Nature of the assay: Transient middle cerebral artery occlusion (MCAo), infarct size evaluation. The format is in vivo. The note with it: IV, one week after the ischemic insult. An excerpt: Experimental design. The design was a randomized one, performed in a masked fashion as to whether drug or vehicle was being given, and an attempt was made to generate approximately equal numbers of drug- and vehicle-treated animals.
• a. Male rats (8 /treatment group) 320-380 gr. (Harlan Israel). • b. Halothane (Rhone Poulenc France) • c. Pentobarbitone (Pental Veterinary, CTS Israel). • d. Poly - L - Lysine (Sigma, USA). • e. Silk suture material 3-0 and 4-0. • f. Nylon (Polyamid) suture material 3-0. Four cm pieces were cut and positioned in a solution of 1% Poly - L - Lysine for 1 minute and dried in an oven (60 ° C) for 60 minutes. The tip of each piece was rounded under a flame. • g. Saline (Teva Medical). • h. Blank cremophor ethanol cosolvent (Pharmos). • i. Dexanabinol in cremophor ethanol cosolvent 50 mg/ml. (Both Dexanabinol and its vehicle were diluted in saline prior to drug administration. • j. Analogs PRS-211,092, PRS-211,095, PRS-211,128 PRS-211,132 and PRS-211,220 in cremophor ethanol cosolvent, 50 mg/ml. • k. The analogs were diluted in saline prior to drug administration.
• a. Surgical details of the MCAo method used for testing dexanabinol analogs, are presented in Belayev, et al., (Belayev, Busto, Weizhao, and Ginsberg, Stroke 26:2313-2319, 1995) which is incorporated herein in its entirety by reference. • b. Two hours after the start of MCAO, the animals were reanesthetized with halothane, the neck wound was re-opened and the nylon thread pulled out of the Internal carotid artery (ICA). The skin wound was then closed with 3-0 silk suture material and the animals allowed to recover from the anesthesia. • c. Three sets of animals were tested. In the first test immediately (2+0 hours) before thread removal the animals were injected IV with either analogs PRS-211,095, PRS-211,128, PRS-211,132, or Dexanabinol (PRS-211,007) each at a dosage of 5 mg/kg. One group of animals was treated with 5ml/kg vehicle alone. In another group, the animals subjected to "sham" operation, the suture was passed into the ICA, as described above, but immediately withdrawn. In the second set dexanabinol, PRS-211,092, PRS-211,095 and PRS-211,220 were used, at 2+0 hours. In the third set dexanabinol, PRS-211,092, PRS-211,095 and PRS-211,220 were administered 1 hour after thread removal (2+1 hours). Laser Doppler Flow (LDF) determined the success of MCAo - a drop of more then 50% in cerebral blood flow was considered as a sign of successful MCAo. Although LDF was a helpful corroborative sign, clinical outcome remained the final inclusion/exclusion criterion, since, with the exception of the PRS-211,220 staircase study, LDF was introduced only after initiation of the study.
A detailed investigation of neurological performance was carried out on the first, third and the 7th day after the MCAo. Two parameters were examined: posture and the flexion reflex (based on Nokon and Chuang, NeuroReport 9, 1998: 2081-2084). Animals were scored according to their performance:
One week after the ischemic insult, animals were euthanized with pentobarbitone 100 mg/kg IP. The animals were perfused through the heart with heparinized 4% formaldehyde solution in PBS (pH 7.4). Brains were then removed, and kept in the same solution before preparation for histological evaluation of the brain infarct volume.

Assay [7] has as its system rat model of myocardial ischemia. Nature of the assay: Rat model of myocardial ischemia and reperfusion. The conditions noted are these: given 15 minutes before occlusion; 45 minutes occlusion, 4 hours reperfusion; versus vehicle. Format: in vivo, rats.

Some results are limits rather than exact numbers.

As for `CCCCCCC(C)(C)c1cc(O)c2c(c1)OC(C)(C)[C@H]1CC=C(CSc3ncc[nH]3)C[C@H]21` (single isomer, unassigned) [211,092-000], the “NMDA receptor binding / affinity” value in assay [1] (MK-801 binding to membranes) is given as “low affinity”. For the same molecule, the IC50 in assay [1] (displacement of [3H]MK-801, rat forebrain membranes, read-out: NMDA BINDING IC50) is more than 50 µM. Also, the inhibition at 10 µM is 57% in assay [2], 22% in assay [3] and 0% in assay [4]. Moreover, it took a dose of 28 µmol/kg to reach the 50% effect level in assay [5] (ED50). Besides, the “reduction of infarct size” value in assay [6] is reported as 52%. Further, the “infarct size (AN/AR, AN/LV)” value in assay [7] is recorded as “clear decrease in infarct size”.

As a reminder, the IC50 is the concentration needed to halve the response being measured. As a reminder, the inhibition is the percentage by which the read-out fell short of the control. One may read the ED50 as the midpoint of the dose-response relation. Low values mean an effect at a small dose, high ones a need for a large dose.

For the origin of these results see patent EP1785417A2, “Novel non-psychotropic cannabinoids” (priority 2000, dated 2001).
